Results taken from ChEMBL document CHEMBL1201862, “PubChem BioAssay data set” (2004).
Several values for one entry are separate records, joined by “and”; a condition that tells them apart may be missing. Equal entries are not always repeated. Activity calls are given as the source filed them.

Assays:
cells = type: functional
[1] = THP-1 cell cytotoxicity, dose response, cytotoxicity control for Vif-APOBEC3G degradation inhibitor project, THP-1 cells (AID 1117359); type: functional; settings: Human immunodeficiency virus 1, THP-1
[2] = target: Serine/threonine-protein phosphatase PP1-alpha catalytic subunit (Homo sapiens, UniProt P62136); test: PP1 phosphatase inhibitors, dose response, biochemical, fluorescence (AID 2403);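 also: phosphatase turnover of OMFP into fluorescent 3-O-methylfluorescein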
SUMO-activating enzyme [3] = target: T1, SUMO-activating enzyme (Homo sapiens, UniProt Q9UBT2); test: inhibitors of in vitro SUMOylation cascade, primary screen, biochemical, HTRF, uHTS (AID 2006); type: protein-complex assay
T1 sequence (Q9UBE0 whole entry): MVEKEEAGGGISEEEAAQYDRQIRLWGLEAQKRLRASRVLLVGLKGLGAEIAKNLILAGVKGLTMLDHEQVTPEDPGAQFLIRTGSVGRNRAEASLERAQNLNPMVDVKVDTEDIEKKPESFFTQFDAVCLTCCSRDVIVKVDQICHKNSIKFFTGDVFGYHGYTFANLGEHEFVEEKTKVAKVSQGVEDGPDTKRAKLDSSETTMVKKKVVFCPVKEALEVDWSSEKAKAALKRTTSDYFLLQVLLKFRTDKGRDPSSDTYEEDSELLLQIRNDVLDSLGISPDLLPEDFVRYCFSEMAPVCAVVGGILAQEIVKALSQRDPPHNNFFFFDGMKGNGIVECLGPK
T1 sequence (Q9UBT2 whole entry): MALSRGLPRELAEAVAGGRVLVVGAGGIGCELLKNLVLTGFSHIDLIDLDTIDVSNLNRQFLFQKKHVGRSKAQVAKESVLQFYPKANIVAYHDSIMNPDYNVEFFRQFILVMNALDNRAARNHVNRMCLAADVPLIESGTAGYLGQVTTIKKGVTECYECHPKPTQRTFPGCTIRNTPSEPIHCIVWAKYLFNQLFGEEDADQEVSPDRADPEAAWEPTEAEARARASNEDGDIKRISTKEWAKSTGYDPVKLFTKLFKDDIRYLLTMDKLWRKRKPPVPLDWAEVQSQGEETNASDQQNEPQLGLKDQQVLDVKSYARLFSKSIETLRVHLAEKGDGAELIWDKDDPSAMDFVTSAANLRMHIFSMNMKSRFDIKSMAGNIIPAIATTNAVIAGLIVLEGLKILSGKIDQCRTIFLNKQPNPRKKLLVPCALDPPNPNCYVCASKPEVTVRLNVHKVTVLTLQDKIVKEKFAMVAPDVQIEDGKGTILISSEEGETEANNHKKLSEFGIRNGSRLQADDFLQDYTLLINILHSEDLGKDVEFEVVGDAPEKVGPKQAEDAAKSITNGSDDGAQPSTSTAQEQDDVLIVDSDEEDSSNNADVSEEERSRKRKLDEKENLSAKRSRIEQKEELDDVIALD

[4] = inhibitors of Vif binding to APOBEC3G peptide, primary screen, biochemical, TR-FRET, GST-Vif 1-94, biotin-A3G peptide, dose response retest (AID 1117319); type: functional;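 also: TR-FRET signal of purified GST-Vif binding a biotinylated A3G peptide; inhibitors lower the FRET signal by blocking Vif and A3G binding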
SUMO-activating enzyme [5] = target: T1, SUMO-activating enzyme; test: SUMOylation inhibitor hit validation, confirmation, SUMOylation inhibitor project, biochemical, AlphaScreen (AID 2018); type: functional
[6] = target: Serine/threonine-protein phosphatase (Homo sapiens, UniProt Q9BPW0); test: Counterscreen for inhibitors of PP1: fluorescence-based biochemical high throughput dose response assay to identify inhibitors of Protein Phosphatase 5 (PP5). [Related pubchem assays: 2034 (Summary (PP5 inhibitors)), 1987 (PP5 inhibitors in singlate), 2235 (PP1 inhibitors in singlate)]
[7] = THP-1 cell cytotoxicity, dose response, cytotoxicity control for non-replicating M. tuberculosis project (AID 489025); type: functional
[8] = Vero E6 cell cytotoxicity, dose response, cytotoxicity control for non-replicating M. tuberculosis project, secondary assay (AID 492998); type: functional, VeroE6; settings: Vero C1008
Bcl-2-like protein 10 = Bcl-2-like protein 10 (Homo sapiens, UniProt Q9HD36); test: Biochemical TR3 FP assay of Bcl-B inhibitor potency, EC50 (AID 1243); type: functional
Sequence of Bcl-2-like protein 10 (Q9HD36 whole entry): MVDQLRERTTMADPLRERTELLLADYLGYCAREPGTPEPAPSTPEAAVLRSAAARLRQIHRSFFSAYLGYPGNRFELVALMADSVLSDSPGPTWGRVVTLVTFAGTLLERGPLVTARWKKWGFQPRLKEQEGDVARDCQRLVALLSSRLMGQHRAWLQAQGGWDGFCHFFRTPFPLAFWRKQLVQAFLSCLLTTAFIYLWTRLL

[9] = target: Heat shock 70 kDa protein 1A (Homo sapiens, UniProt P0DMV8); test: Hsp70 inhibitors, SAR follow-up, biochemical, fluorescence polarization (AID 1072)
Sequence of Heat shock 70 kDa protein 1A (P0DMV8 whole entry): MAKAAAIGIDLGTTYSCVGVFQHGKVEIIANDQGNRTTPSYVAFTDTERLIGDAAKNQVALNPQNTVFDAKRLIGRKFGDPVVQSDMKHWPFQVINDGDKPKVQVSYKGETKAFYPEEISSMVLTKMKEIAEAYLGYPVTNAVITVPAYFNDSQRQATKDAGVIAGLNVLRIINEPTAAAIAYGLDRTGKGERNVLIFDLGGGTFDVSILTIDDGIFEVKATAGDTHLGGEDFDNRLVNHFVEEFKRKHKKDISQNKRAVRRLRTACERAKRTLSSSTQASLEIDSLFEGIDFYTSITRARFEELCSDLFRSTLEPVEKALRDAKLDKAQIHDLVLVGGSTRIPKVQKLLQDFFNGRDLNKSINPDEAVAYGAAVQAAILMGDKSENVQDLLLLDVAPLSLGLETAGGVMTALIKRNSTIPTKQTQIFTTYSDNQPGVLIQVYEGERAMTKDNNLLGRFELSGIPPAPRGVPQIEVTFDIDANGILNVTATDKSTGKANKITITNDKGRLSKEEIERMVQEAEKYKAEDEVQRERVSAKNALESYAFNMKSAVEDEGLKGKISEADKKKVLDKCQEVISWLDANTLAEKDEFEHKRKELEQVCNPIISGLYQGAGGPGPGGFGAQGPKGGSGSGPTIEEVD

[10] = target: T2, Tyrosine-protein phosphatase non-receptor type 7 (Homo sapiens, UniProt P35236); type: functional
T2 sequence (P35236 whole entry): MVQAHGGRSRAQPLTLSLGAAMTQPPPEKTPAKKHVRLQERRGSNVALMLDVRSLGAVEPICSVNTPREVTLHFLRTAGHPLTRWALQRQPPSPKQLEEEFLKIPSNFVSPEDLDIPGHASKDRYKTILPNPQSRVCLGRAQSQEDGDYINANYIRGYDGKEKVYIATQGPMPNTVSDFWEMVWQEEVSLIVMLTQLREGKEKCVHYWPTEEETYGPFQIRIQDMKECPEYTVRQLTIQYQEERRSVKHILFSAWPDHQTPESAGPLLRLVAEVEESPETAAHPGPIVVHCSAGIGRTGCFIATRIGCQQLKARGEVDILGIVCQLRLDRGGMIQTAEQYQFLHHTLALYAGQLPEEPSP

[11] = target: T3, Voltage-gated N-type calcium channel alpha-1B subunit/Amyloid beta A4 precursor protein-binding family A member 1 (Homo sapiens, UniProt Q00975+Q02410); type: protein assay
T3 sequence (Q00975 whole entry): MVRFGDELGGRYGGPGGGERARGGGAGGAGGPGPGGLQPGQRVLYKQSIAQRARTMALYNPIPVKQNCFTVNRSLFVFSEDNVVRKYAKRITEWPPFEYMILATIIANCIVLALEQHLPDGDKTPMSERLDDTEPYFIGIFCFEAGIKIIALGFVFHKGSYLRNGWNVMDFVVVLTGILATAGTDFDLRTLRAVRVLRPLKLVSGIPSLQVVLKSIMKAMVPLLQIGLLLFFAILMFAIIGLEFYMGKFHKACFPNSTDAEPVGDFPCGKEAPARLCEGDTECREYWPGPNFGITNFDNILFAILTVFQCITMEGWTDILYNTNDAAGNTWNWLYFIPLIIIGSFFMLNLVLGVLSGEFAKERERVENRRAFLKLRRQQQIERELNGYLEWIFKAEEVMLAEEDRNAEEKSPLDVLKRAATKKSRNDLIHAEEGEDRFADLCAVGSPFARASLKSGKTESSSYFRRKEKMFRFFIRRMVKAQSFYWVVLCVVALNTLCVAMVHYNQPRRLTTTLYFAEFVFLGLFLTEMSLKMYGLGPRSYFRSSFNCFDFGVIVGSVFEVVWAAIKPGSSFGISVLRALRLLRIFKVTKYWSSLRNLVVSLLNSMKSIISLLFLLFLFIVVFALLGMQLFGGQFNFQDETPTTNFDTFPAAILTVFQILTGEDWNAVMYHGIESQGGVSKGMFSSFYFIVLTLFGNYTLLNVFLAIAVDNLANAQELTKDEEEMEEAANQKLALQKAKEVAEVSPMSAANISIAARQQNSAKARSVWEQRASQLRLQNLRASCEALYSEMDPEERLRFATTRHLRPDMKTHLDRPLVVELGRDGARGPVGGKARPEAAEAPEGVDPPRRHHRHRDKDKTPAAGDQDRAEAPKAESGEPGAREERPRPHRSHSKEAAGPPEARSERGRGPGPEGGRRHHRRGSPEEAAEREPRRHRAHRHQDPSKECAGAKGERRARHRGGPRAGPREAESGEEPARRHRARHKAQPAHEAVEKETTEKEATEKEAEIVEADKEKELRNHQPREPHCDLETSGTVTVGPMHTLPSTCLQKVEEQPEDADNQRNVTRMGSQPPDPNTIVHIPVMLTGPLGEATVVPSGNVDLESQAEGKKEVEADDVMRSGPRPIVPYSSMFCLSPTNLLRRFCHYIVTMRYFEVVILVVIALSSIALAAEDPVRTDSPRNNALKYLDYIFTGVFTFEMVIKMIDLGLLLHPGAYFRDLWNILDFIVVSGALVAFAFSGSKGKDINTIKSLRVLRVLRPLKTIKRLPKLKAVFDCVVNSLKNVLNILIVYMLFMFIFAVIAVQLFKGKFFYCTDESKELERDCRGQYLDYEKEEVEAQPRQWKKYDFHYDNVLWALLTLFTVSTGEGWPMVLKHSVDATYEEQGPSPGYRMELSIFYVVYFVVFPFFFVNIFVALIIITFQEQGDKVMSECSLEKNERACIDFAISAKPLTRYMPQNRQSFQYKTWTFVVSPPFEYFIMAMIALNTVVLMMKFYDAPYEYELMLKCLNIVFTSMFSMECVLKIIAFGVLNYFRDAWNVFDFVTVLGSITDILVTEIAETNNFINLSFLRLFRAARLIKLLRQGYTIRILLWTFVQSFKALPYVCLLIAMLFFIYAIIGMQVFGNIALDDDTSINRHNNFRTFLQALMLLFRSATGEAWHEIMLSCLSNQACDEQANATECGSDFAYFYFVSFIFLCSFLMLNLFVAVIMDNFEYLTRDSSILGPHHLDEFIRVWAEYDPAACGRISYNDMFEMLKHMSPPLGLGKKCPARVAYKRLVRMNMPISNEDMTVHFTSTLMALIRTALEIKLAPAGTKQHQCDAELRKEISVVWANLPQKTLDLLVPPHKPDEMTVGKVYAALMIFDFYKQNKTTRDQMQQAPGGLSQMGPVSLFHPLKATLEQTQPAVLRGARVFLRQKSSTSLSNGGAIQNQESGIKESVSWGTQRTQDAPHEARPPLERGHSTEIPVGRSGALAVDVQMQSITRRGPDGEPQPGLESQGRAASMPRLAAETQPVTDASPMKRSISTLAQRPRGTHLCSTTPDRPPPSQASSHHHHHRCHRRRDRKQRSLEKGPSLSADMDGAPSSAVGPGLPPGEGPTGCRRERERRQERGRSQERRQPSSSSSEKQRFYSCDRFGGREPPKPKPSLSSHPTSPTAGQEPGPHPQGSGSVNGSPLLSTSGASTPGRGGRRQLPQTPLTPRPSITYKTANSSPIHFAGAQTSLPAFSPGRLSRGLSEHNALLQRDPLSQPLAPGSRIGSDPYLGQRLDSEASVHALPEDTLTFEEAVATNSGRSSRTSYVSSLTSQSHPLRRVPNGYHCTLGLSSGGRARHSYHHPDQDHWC
T3 sequence (Q02410 whole entry): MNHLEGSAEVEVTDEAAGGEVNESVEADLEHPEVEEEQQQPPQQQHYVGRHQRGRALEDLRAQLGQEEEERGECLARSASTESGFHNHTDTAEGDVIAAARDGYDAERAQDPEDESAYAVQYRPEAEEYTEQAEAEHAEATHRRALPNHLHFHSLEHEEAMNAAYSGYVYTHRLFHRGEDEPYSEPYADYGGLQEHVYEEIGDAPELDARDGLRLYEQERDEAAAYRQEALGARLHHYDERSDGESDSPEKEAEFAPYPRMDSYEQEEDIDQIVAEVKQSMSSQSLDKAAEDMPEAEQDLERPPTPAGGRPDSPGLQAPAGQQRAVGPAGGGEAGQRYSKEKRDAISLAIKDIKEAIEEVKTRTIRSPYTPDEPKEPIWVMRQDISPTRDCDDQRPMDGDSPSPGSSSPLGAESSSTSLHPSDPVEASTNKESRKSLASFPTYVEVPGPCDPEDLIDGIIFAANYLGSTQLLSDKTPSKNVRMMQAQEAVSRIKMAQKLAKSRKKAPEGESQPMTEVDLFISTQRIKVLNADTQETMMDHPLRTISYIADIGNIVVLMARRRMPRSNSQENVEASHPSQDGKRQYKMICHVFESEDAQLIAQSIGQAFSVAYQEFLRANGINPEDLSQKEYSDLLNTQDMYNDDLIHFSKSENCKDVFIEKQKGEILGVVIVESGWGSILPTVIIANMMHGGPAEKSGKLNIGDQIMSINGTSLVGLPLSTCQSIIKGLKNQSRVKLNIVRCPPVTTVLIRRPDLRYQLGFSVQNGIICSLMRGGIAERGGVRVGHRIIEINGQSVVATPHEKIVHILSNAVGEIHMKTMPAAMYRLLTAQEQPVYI

[12] = Vero cell cytotoxicity, dose response, cytotoxicity control for Vif-APOBEC3G degradation inhibitor project, Vero cells (AID 1117358); type: functional; settings: Human immunodeficiency virus 1, Vero
[13] = target: T3, Voltage-gated N-type calcium channel alpha-1B subunit/Amyloid beta A4 precursor protein-binding family A member 1; type: protein assay; remark: listed apart in the source
[14] = target: Glyceraldehyde-3-phosphate dehydrogenase (Homo sapiens, UniProt P04406)
[15] = target: T4, Tyrosine-protein phosphatase non-receptor type 22 (Homo sapiens, UniProt Q9Y2R2); type: functional
T4 sequence (Q9Y2R2 whole entry): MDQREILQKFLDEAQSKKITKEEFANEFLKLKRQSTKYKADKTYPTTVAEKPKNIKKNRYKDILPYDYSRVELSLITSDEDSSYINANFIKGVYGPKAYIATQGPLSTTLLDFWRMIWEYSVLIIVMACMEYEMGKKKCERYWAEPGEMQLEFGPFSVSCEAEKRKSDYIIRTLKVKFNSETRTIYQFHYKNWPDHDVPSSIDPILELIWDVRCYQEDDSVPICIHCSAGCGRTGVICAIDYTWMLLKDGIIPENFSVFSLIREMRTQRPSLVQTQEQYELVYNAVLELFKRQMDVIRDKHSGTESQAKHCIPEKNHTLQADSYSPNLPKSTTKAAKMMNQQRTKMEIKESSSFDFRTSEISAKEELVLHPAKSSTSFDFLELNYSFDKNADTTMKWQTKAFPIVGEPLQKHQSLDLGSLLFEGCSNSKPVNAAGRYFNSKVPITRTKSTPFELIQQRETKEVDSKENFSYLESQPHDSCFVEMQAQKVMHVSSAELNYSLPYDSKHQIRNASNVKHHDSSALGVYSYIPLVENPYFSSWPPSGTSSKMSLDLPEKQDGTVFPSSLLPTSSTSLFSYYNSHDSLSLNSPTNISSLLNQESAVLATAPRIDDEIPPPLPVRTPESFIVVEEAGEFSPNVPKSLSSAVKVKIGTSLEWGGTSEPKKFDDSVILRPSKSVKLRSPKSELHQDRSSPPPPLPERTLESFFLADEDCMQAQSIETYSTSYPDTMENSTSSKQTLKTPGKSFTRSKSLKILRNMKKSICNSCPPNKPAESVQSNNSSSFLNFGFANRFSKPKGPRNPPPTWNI

Genome polyprotein = Genome polyprotein (Hepatitis C virus, UniProt Q2Q167); test: HCV core protein dimerization inhibitors, dose response, biochemical, TR-FRET (AID 2159); parameters: species or system Hepacivirus hominis;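 also: blocks dimerization of HCV core protein measured by TR-FRET between tagged core106 pairs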
[16] = target: Heat shock cognate 71 kDa protein (Homo sapiens, UniProt P11142); test: In Vitro Hsc70 Dose Response Fluorescence Polarization Assay. [Related pubchem assays: 1072 ]
[17] = target: T4, Tyrosine-protein phosphatase non-receptor type 22; type: functional; remark: listed apart in the source
[18] = target: T2, Tyrosine-protein phosphatase non-receptor type 7; type: functional; remark: listed apart in the source
[19] = target: T5, Dual specificity protein phosphatase 6 (Rattus norvegicus, UniProt Q64346); type: functional
T5 sequence (Q64346 whole entry): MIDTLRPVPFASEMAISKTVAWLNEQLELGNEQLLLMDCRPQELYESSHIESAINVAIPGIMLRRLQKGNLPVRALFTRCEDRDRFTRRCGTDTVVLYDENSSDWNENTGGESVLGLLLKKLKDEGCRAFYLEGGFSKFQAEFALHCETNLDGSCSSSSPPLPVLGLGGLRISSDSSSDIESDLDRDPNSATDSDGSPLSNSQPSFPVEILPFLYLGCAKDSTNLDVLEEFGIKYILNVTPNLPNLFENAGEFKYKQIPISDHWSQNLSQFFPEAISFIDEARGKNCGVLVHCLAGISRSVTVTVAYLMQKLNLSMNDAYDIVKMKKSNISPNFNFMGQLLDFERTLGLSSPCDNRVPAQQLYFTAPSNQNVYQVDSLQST

[20] = target: T5, Dual specificity protein phosphatase 6; test: MKP-3 phosphatase inhibitors, primary screen, biochemical, rat enzyme, in vitro (AID 425)
NS3 = NS3 (Hepatitis C virus, UniProt A3EZJ3); test: PubChem AID 2173; parameters: species or system Hepacivirus hominis
Estrogen receptor beta = Estrogen receptor beta (Homo sapiens, UniProt Q92731); test: ERβ–SRC-3 coactivator interaction inhibitors, confirmation, orthogonal assay, biochemical, ELISA, streptavidin-HRP readout (AID 1060)
[21] = HIV-1 Env-mediated cell fusion inhibitors, dose response, CCR5-tropic Env (AID 2279); type: functional
[22] = target: T5, Dual specificity protein phosphatase 6
[23] = target: Eukaryotic translation initiation factor 4E (Mus musculus, UniProt P63073); test: eIF4E–eIF4G protein interaction inhibitors, dose response, biochemical, TR-FRET (AID 855); type: functional;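 also: potency for disrupting eIF4E binding to eIF4GI seen as loss of FRET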
[24] = Counterscreen for IDE inhibitors: Luminescence-based cell-based high throughput dose response assay to identify compounds that are cytotoxic to HEK cells. [Related pubchem assays: 434962 (Primary screen (IDE inhibitors in singlicate)), 449730 (Counterscreen (Cytotoxicity in triplicate)), 435028 (Confirmation (IDE inhibitors in triplicate)) …; type: functional; settings: HEK293
[25] = target: T6, Corticotropin-releasing factor receptor 2/Corticotropin-releasing factor-binding protein (Homo sapiens, UniProt P24387+Q13324); test: activators of CRF receptor 2 with binding protein – uHTS hits, confirmation (AID 602473); type: functional; settings: read-out: EC50_Mean
T6 sequence (Q13324 whole entry): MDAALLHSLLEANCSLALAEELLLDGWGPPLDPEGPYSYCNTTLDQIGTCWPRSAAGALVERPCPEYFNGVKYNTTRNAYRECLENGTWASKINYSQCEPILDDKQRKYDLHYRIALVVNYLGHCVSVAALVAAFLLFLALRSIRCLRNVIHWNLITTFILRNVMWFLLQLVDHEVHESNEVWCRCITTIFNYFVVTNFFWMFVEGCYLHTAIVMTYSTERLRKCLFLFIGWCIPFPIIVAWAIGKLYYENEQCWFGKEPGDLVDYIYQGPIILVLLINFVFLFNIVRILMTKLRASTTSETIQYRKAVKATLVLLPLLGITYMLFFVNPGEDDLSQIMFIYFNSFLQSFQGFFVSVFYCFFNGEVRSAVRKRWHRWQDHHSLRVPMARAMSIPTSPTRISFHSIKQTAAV
T6 sequence (P24387 whole entry): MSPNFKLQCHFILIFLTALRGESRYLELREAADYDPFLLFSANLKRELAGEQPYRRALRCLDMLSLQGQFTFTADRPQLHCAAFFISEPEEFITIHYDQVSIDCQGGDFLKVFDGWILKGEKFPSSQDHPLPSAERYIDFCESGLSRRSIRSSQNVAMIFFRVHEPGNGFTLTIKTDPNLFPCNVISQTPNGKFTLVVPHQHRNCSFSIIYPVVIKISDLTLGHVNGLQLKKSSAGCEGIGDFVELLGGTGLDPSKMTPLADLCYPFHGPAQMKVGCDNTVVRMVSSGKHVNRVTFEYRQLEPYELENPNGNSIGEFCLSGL

Estrogen receptor = target: T7, Estrogen receptor (Homo sapiens, UniProt P03372); test: potentiators of ERα–SRC-1 coactivator binding, dose response, biochemical, TR-FRET, ERα LBD (AID 737)
T7 sequence (P03372 whole entry): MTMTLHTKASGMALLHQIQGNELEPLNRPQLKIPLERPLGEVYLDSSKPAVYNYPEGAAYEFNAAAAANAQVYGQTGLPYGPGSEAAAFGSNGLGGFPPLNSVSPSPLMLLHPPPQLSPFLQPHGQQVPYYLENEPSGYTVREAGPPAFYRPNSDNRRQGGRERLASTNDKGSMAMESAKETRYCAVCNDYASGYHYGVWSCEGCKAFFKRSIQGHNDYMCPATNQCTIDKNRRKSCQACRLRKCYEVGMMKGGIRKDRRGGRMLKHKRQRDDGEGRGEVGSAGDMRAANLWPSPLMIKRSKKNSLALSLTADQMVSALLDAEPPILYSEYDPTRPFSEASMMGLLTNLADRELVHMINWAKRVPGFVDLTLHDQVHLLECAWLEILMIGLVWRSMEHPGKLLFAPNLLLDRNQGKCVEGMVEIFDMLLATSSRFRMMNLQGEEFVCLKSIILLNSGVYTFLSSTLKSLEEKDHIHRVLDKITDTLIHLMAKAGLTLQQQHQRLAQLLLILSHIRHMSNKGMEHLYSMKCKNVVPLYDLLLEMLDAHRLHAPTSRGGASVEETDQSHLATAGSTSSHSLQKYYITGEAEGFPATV

[26] = target: T6, Corticotropin-releasing factor receptor 2/Corticotropin-releasing factor-binding protein; test: Dose Response confirmation of uHTS hits for small molecule antagonists of the CRF-binding protein and CRF-R2 receptor complex.; type: functional; settings: read-out: IC50_Mean

With `O=C1NC(=O)C(=Cc2ccc(-c3cc(Cl)ccc3Cl)[nH]2)C(=O)N1` the IC50 (cells) was < 0.1 µM (active), the CC50 [1] was > 40 µM (active) and the IC50 [2] was 5.6 µM (active). For the same compound, the IC50 (SUMO-activating enzyme [3]) was 16.4 µM (active), the IC50 [4] was > 100 µM (active) and the IC50 (SUMO-activating enzyme [5]) was 11.6 µM (active). The IC50 [6] was > 67 µM (not active), the CC50 [7] was 23.1 µM (active) and the CC50 [8] was > 20 µM (active).
In the case of `Clc1ccc(C2C=C(c3ccccc3)Nc3ncnn32)cc1` (configuration not stated), the EC50 (Bcl-2-like protein 10) was 14.2 µM (active).
With `O=C(O)C1Nc2c(O)cccc2C2C=CCC12` (configuration not stated) the IC50 [9] was 9.87 µM (active), the IC50 [10] was 11.2 µM (active) and the IC50 [11] was 8.61 µM (active). The CC50 [12] was > 40 µM (active), the IC50 [13] was 4.98 µM (active) and the IC50 [14] was 47.7 µM (active). The IC50 [15] was 8.35 µM (active), the IC50 (Genome polyprotein) was > 49.8 µM (not active) and the IC50 [16] was 62 µM (active). The IC50 [17] was 6.84 µM (active), the IC50 [18] was 0.503 µM (active) and the IC50 [19] was 7.38 µM (active) and 14.6 µM (active). The IC50 [20] was > 10 µM (not active), the IC50 (NS3) was 3.43 µM (active) and the IC50 (Estrogen receptor beta) was > 50 µM (not active). For the same compound, the IC50 [21] was 29.4 µM (active), the IC50 [22] was 8.5 µM (active) and the IC50 [23] was 12.7 µM (active).
In the case of `Oc1nc2ccccc2c(O)c1O`, the IC50 [24] was 13.6 µM (not active).
With `COC(=O)c1ccc(CSc2nc3c(cnn3-c3ccc(F)cc3)c(=O)[nH]2)o1` the EC50 [25] was > 53 µM (inactive), the EC50 (Estrogen receptor) was 12.9 µM (not active) and the IC50 [26] was > 47.1 µM (inactive).
